{
  "source": "paper PMC10470178",
  "about": "“Long-acting lenacapavir protects macaques against intravenous challenge with simian-tropic HIV” (eBioMedicine, 2023)",
  "key": {"SIVmac239": {"test_system": "SIVmac239", "assay": "Multi-round viral replication assay in SupT1-CCR5 cells, SIVmac239", "type": "cell-based, SIV", "procedure": "(§1) Infectious stocks of stHIV-A19,[23] HIV-1 NL4-3, and SIVmac239 were produced in HEK-293T (RRID: CVCL_1926) cells transfected with full-length viral genome plasmids using the TransIT HEK-293 transfection reagent (Mirus Bio) according to the manufacturer’s instructions. Virus stock infectious titres were determined on TZM-bl reporter cells (RRID: CVCL_B478) as previously described.[26] For experiments using SupT1-CCR5 target cells (RRID: CVCL_X633),[27] cultures were maintained in RPMI 1640 medium supplemented with 10% foetal bovine serum (FBS), 2 mM glutamine, 100 U/ml penicillin, and 100 μg/ml streptomycin. […] Cells were then washed three times to remove input virus, counted, and cultured in triplicate in growth media containing serial threefold dilutions of LEN or no LEN (control). […] Culture supernatants were collected 7 days post-inoculation, clarified by centrifugation, and stored at −80 °C for later quantification of vRNA by quantitative reverse transcription polymerase chain reaction (qRT-PCR). […] The stHIV-A19 stock was quantified with a SYBR Green-based qPCR-based product-enhanced RT (PERT) assay using a purified reverse transcriptase (RT) protein standard, as previously described.[28] […] After 7 days, the virus in culture supernatants was quantified using the PERT assay. […]"}, "HIV-1 NL4-3": {"test_system": "HIV-1 NL4-3", "assay": "Multi-round viral replication assay in SupT1-CCR5 cells, HIV-1 NL4-3", "type": "cell-based", "conditions": "Human immunodeficiency virus 1, NL43, 168 h, supernatant vRNA 7 days post-infection, mean ± SD of three independent experiments, read-out: mean EC50 against HIV-1 NL4-3", "procedure": "as §1"}, "[1]": {"set-up": "method as in earlier work", "conditions": "single SC injection of 900 mg LEN, Phase 1b clinical trial; cited from earlier work"}, "stHIV-A19 [2]": {"test_system": "stHIV-A19", "assay": "Multi-round viral replication assay in SupT1-CCR5 cells, stHIV-A19", "type": "cell-based, simian-tropic HIV-1", "conditions": "Human immunodeficiency virus 1, 168 h, supernatant vRNA 7 days post-infection, mean ± SD of three independent experiments, read-out: mean EC50 against stHIV-A19", "procedure": "as §1"}, "SHIVs": {"test_system": "SHIVs", "set-up": "method as in PMID 34875675", "conditions": "SHIVs contain SIV CA derived from SIVmac239; cited from earlier work"}, "stHIV-A19 [3]": {"test_system": "stHIV-A19", "assay": "Multi-round replication assay of stHIV-A19 in primary human PBMCs (PERT readout)", "type": "cell-based, simian-tropic HIV-1", "conditions": "three donors, RT in supernatant at 7 days", "procedure": "as §1"}, "stHIV-A19 [4]": {"test_system": "stHIV-A19", "assay": "Multi-round replication assay of stHIV-A19 in pigtail macaque PBMCs (PERT readout)", "type": "cell-based, simian-tropic HIV-1", "conditions": "for mean EC95 against stHIV-A19 in pigtail macaque PBMC: PTM PBMCs, three donors, RT in supernatant at 7 days, calculated from EC50 with Hill coefficient 3.51", "procedure": "Infectious stocks of stHIV-A19,[23] HIV-1 NL4-3, and SIVmac239 were produced in HEK-293T (RRID: CVCL_1926) cells transfected with full-length viral genome plasmids using the TransIT HEK-293 transfection reagent (Mirus Bio) according to the manufacturer’s instructions. Virus stock infectious titres were determined on TZM-bl reporter cells (RRID: CVCL_B478) as previously described.[26] For experiments using SupT1-CCR5 target cells (RRID: CVCL_X633),[27] cultures were maintained in RPMI 1640 medium supplemented with 10% foetal bovine serum (FBS), 2 mM glutamine, 100 U/ml penicillin, and 100 μg/ml streptomycin. SupT1-CCR5 cells were inoculated with stHIV-A19, HIV-1 NL4-3, or SIVmac239 at a multiplicity of infection (MOI) = 0.0125 and cultured at 37 °C for 4 h. Cells were then washed three times to remove input virus, counted, and cultured in triplicate in growth media containing serial threefold dilutions of LEN or no LEN (control). The concentration of DMSO (LEN vehicle) was maintained at 0.5% for all cultures. Culture supernatants were collected 7 days post-inoculation, clarified by centrifugation, and stored at −80 °C for later quantification of vRNA by quantitative reverse transcription polymerase chain reaction (qRT-PCR). Primary human peripheral blood mononuclear cells (PBMCs) from anonymous HIV-negative donors were isolated from leukopaks obtained from the New York Blood Center for experiments using primary human and PTM PBMC. […] The stHIV-A19 stock was quantified with a SYBR Green-based qPCR-based product-enhanced RT (PERT) assay using a purified reverse transcriptase (RT) protein standard, as previously described.[28] […] After 7 days, the virus in culture supernatants was quantified using the PERT assay. […] The EC95 for LEN against stHIV-A19 was then calculated from its corresponding EC50 values using the ECanything equation: ECF = EC50 × (F/100-F)^1/n, where F equals the percent response (e.g., 95) and n equals the Hill coefficient for LEN (n = 3.51) as previously described.[16]"}},
  "note": "Several values for one entry are separate records, joined by “and”; a condition that tells them apart may be missing. Identical values can stand only once.",
  "data": [
    {"smiles": "CC(C)(C#Cc1ccc(-c2ccc(Cl)c3c(NS(C)(=O)=O)nn(CC(F)(F)F)c23)c([C@H](Cc2cc(F)cc(F)c2)NC(=O)Cn2nc(C(F)(F)F)c3c2C(F)(F)[C@@H]2C[C@H]32)n1)S(C)(=O)=O", "note": "[LEN, Lenacapavir]", "values": [
      {"measurement": "reduced potency against SIVmac239 compared with HIV-1 NL4-3 and stHIV-A19", "setting": "SIVmac239", "value": "approximately 6 fold"},
      {"measurement": "EC50", "setting": "SIVmac239; Simian immunodeficiency virus, 168 h, supernatant vRNA 7 days post-infection, mean ± SD of three independent experiments, read-out: mean EC50 against SIVmac239", "value": 0.502, "unit": "nM"},
      {"measurement": "EC50", "setting": "HIV-1 NL4-3", "value": 0.086, "unit": "nM"},
      {"measurement": "mean plasma drug concentrations relative to PA-EC95, maintained for 6 months", "setting": "[1]", "value": "≥ 6", "unit": "fold"},
      {"measurement": "EC50", "setting": "stHIV-A19 [2]", "value": 0.091, "unit": "nM"},
      {"measurement": "reduced sensitivity of SHIVs compared with HIV-1", "setting": "SHIVs", "value": "5–8 fold"},
      {"measurement": "mean EC95 against stHIV-A19 in human PBMC", "setting": "stHIV-A19 [3]; calculated from EC50 with Hill coefficient 3.51", "value": "122 ± 31", "unit": "pM"},
      {"measurement": "mean EC95 against stHIV-A19 in human PBMC", "setting": "stHIV-A19 [3]; calculated from EC50 with Hill coefficient 3.51, listed as Lenacapavir", "value": "122 (±31 SD) pM"},
      {"measurement": "plasma protein binding-adjusted EC95 (PA-EC95) against stHIV-A19 in PTMs", "setting": "stHIV-A19 [4]; EC95 in PTM PBMC adjusted by 9.7-fold plasma shift", "value": "1.46 (±0.07 SD) nM and 1.46 nM"},
      {"measurement": "mean EC95 against stHIV-A19 in pigtail macaque PBMC", "setting": "stHIV-A19 [4]", "value": "149 ± 7", "unit": "pM"},
      {"measurement": "mean EC95 against stHIV-A19 in pigtail macaque PBMC", "setting": "stHIV-A19 [4]; listed as Lenacapavir", "value": "149 (±7 SD) pM"}
    ]}
  ]
}
